Results reported in publication PMC9578392, “Safety, Tolerability, and Pharmacokinetics of the Novel Antiviral Agent Ensitrelvir Fumaric Acid, a SARS-CoV-2 3CL Protease Inhibitor, in Healthy Adults” (Antimicrobial Agents and Chemotherapy, 2022).

Assay: Blood lipid profiling, single-dose part (Supplementary Table 3)
Format: in vivo, human

Cn1cnc(Cn2c(=O)[nH]/c(=N\c3cc4cn(C)nc4cc3Cl)n(Cc3cc(F)c(F)cc3F)c2=O)n1 [Ensitrelvir, ensitrelvir fumaric acid]
Triglyceride, Mean (SD) (Cohort A 20 mg single dose, Day 2, baseline mean 0.8825): 1.0032 mmol/L
Cholesterol, Mean (SD) (Cohort A 20 mg single dose, Day 2, baseline mean 4.1635): 4.2842 mmol/L
HDL-C, Mean (SD) (Cohort A 20 mg single dose, Day 2, baseline mean 460.0): 458.3 (47.9) mg/L
LDL-C, Mean (SD) (Cohort A 20 mg single dose, Day 2, baseline mean 993.3): 1048.3 mg/L
Triglyceride, Mean (SD) (Cohort A 20 mg single dose, Day 4, baseline mean 0.8825): 1.3643 mmol/L
Cholesterol, Mean (SD) (Cohort A 20 mg single dose, Day 4, baseline mean 4.1635): 4.2668 mmol/L
HDL-C, Mean (SD) (Cohort A 20 mg single dose, Day 4, baseline mean 460.0): 446.7 (63.1) mg/L
LDL-C, Mean (SD) (Cohort A 20 mg single dose, Day 4, baseline mean 993.3): 1026.7 mg/L
Triglyceride, Mean (SD) (Cohort A 20 mg single dose, Day 7/Early termination, baseline mean 0.8825): 1.3852 mmol/L
Cholesterol, Mean (SD) (Cohort A 20 mg single dose, Day 7/Early termination, baseline mean 4.1635): 4.1290 mmol/L
HDL-C, Mean (SD) (Cohort A 20 mg single dose, Day 7/Early termination, baseline mean 460.0): 440.0 (66.9) mg/L
LDL-C, Mean (SD) (Cohort A 20 mg single dose, Day 7/Early termination, baseline mean 993.3): 966.7 mg/L
Triglyceride, Mean (SD) (Cohort A 20 mg single dose, Follow up, baseline mean 0.8825): 0.7037 mmol/L
Cholesterol, Mean (SD) (Cohort A 20 mg single dose, Follow up, baseline mean 4.1635): 3.9048 mmol/L
HDL-C, Mean (SD) (Cohort A 20 mg single dose, Follow up, baseline mean 460.0): 445.0 (70.1) mg/L
LDL-C, Mean (SD) (Cohort A 20 mg single dose, Follow up, baseline mean 993.3): 923.3 mg/L
Triglyceride, Mean (SD) (Cohort B 70 mg single dose, Day 2, baseline mean 1.0330): 1.1478 mmol/L
Cholesterol, Mean (SD) (Cohort B 70 mg single dose, Day 2, baseline mean 4.0987): 4.1463 mmol/L
HDL-C, Mean (SD) (Cohort B 70 mg single dose, Day 2, baseline mean 436.7): 413.3 (42.7) mg/L
LDL-C, Mean (SD) (Cohort B 70 mg single dose, Day 2, baseline mean 995.0): 1041.7 mg/L
Triglyceride, Mean (SD) (Cohort B 70 mg single dose, Day 4, baseline mean 1.0330): 1.4170 mmol/L
Cholesterol, Mean (SD) (Cohort B 70 mg single dose, Day 4, baseline mean 4.0987): 4.0515 mmol/L
HDL-C, Mean (SD) (Cohort B 70 mg single dose, Day 4, baseline mean 436.7): 411.7 (52.3) mg/L
LDL-C, Mean (SD) (Cohort B 70 mg single dose, Day 4, baseline mean 995.0): 946.7 mg/L
Triglyceride, Mean (SD) (Cohort B 70 mg single dose, Day 7/Early termination, baseline mean 1.0330): 1.4393 mmol/L
Cholesterol, Mean (SD) (Cohort B 70 mg single dose, Day 7/Early termination, baseline mean 4.0987): 3.8145 mmol/L
HDL-C, Mean (SD) (Cohort B 70 mg single dose, Day 7/Early termination, baseline mean 436.7): 396.7 (60.2) mg/L
LDL-C, Mean (SD) (Cohort B 70 mg single dose, Day 7/Early termination, baseline mean 995.0): 881.7 mg/L
Triglyceride, Mean (SD) (Cohort B 70 mg single dose, Follow up, baseline mean 1.0330): 0.8882 mmol/L
Cholesterol, Mean (SD) (Cohort B 70 mg single dose, Follow up, baseline mean 4.0987): 3.7368 mmol/L
HDL-C, Mean (SD) (Cohort B 70 mg single dose, Follow up, baseline mean 436.7): 420.0 (55.1) mg/L
LDL-C, Mean (SD) (Cohort B 70 mg single dose, Follow up, baseline mean 995.0): 873.3 mg/L
Triglyceride, Mean (SD) (Cohort C fasted state 250 mg single dose, Day 2 [Day 16], baseline mean 0.9596): 1.3053 mmol/L
Cholesterol, Mean (SD) (Cohort C fasted state 250 mg single dose, Day 2 [Day 16], baseline mean 4.1053): 3.8918 mmol/L
HDL-C, Mean (SD) (Cohort C fasted state 250 mg single dose, Day 2 [Day 16], baseline mean 486.3): 376.3 (81.9) mg/L
LDL-C, Mean (SD) (Cohort C fasted state 250 mg single dose, Day 2 [Day 16], baseline mean 900.0): 916.3 mg/L
Triglyceride, Mean (SD) (Cohort C fasted state 250 mg single dose, Day 4 [Day 18], baseline mean 0.9596): 1.2235 mmol/L
Cholesterol, Mean (SD) (Cohort C fasted state 250 mg single dose, Day 4 [Day 18], baseline mean 4.1053): 3.9695 mmol/L
HDL-C, Mean (SD) (Cohort C fasted state 250 mg single dose, Day 4 [Day 18], baseline mean 486.3): 401.3 (66.4) mg/L
LDL-C, Mean (SD) (Cohort C fasted state 250 mg single dose, Day 4 [Day 18], baseline mean 900.0): 942.5 mg/L
Triglyceride, Mean (SD) (Cohort C fasted state 250 mg single dose, Day 7 [Day 21]/Early termination, baseline mean 0.9596): 1.0571 mmol/L
Cholesterol, Mean (SD) (Cohort C fasted state 250 mg single dose, Day 7 [Day 21]/Early termination, baseline mean 4.1053): 4.0019 mmol/L
HDL-C, Mean (SD) (Cohort C fasted state 250 mg single dose, Day 7 [Day 21]/Early termination, baseline mean 486.3): 438.8 (76.6) mg/L
LDL-C, Mean (SD) (Cohort C fasted state 250 mg single dose, Day 7 [Day 21]/Early termination, baseline mean 900.0): 923.8 mg/L
Triglyceride, Mean (SD) (Cohort C fasted state 250 mg single dose, Follow up (n 4), baseline mean 0.9596): 0.6295 mmol/L
Cholesterol, Mean (SD) (Cohort C fasted state 250 mg single dose, Follow up (n 4), baseline mean 4.1053): 3.9760 mmol/L
HDL-C, Mean (SD) (Cohort C fasted state 250 mg single dose, Follow up (n 4), baseline mean 486.3): 445.0 mg/L
LDL-C, Mean (SD) (Cohort C fasted state 250 mg single dose, Follow up (n 4), baseline mean 900.0): 977.5 mg/L
Triglyceride, Mean (SD) (Cohort D 500 mg single dose, Day 2, baseline mean 0.7507): 1.2928 mmol/L
Cholesterol, Mean (SD) (Cohort D 500 mg single dose, Day 2, baseline mean 4.2838): 3.9005 mmol/L
HDL-C, Mean (SD) (Cohort D 500 mg single dose, Day 2, baseline mean 546.7): 330.0 mg/L
LDL-C, Mean (SD) (Cohort D 500 mg single dose, Day 2, baseline mean 990.0): 951.7 mg/L
Triglyceride, Mean (SD) (Cohort D 500 mg single dose, Day 4, baseline mean 0.7507): 1.1327 mmol/L
Cholesterol, Mean (SD) (Cohort D 500 mg single dose, Day 4, baseline mean 4.2838): 3.8273 mmol/L
HDL-C, Mean (SD) (Cohort D 500 mg single dose, Day 4, baseline mean 546.7): 340.0 (74.8) mg/L
LDL-C, Mean (SD) (Cohort D 500 mg single dose, Day 4, baseline mean 990.0): 950.0 mg/L
Triglyceride, Mean (SD) (Cohort D 500 mg single dose, Day 7/Early termination, baseline mean 0.7507): 0.9937 mmol/L
Cholesterol, Mean (SD) (Cohort D 500 mg single dose, Day 7/Early termination, baseline mean 4.2838): 3.8103 mmol/L
HDL-C, Mean (SD) (Cohort D 500 mg single dose, Day 7/Early termination, baseline mean 546.7): 421.7 (83.8) mg/L
LDL-C, Mean (SD) (Cohort D 500 mg single dose, Day 7/Early termination, baseline mean 990.0): 928.3 mg/L
Triglyceride, Mean (SD) (Cohort D 500 mg single dose, Follow up, baseline mean 0.7507): 0.5627 mmol/L
